The source of these data is patent US20090148342A1, “Hypochlorite Technology” (priority 2007, published 2009).

One data set has as its system Escherica coli. Kind of data set: Ceramic tile disinfection with powdered hypochlorite. Conditions: tile treated with 2% NaOCl (positive control).
The next data set concerns Klebsiella species. The description is as above. Conditions: tile sprayed with 2% solution; contact time four minutes (positive control).
A further data set has as its system contaminated slides. Description: Continuous disinfection of contaminated slides by vapor emitter. The data set is classed as cell-based. Conditions: 6000 ppm sodium hypochlorite at pH 9; contaminated slides exposed and evaluated every couple of days. The text has this:
Another approach is increasing the pH of the bleach solution to reduce chlorine. See in the Examples Section below. An isobaric line for constant hypochlorous acid vapor pressure can be calculated from literature values of various equilibrium constants for various concentrations of sodium hypochlorite and pH. Thus, one can maintain the performance of a desired concentration of hypochlorous acid but eliminate chlorine by increasing pH and hypochlorite concentration according to the isobaric line. […] The higher bleach concentrations also allow for smaller volumes of solution since the volume of solution required to provide a certain number of moles of hypochlorous acid decreases as the concentration increases. […] This allows much longer product lifetimes for an emitter. […] In one embodiment, the sodium hypochlorite at about pH 9 is gelled using clay.

The test system of a further data set is Staphococcus species. Description: Ceramic tile disinfection with powdered hypochlorite. The settings on record: tile treated with 2% NaOCl (positive control).
The test system of a further data set is Dust mite allergen. Conditions: ELISA test after treatment for 1 hour; low concentration; cited from earlier work. For orientation: In an ELISA, binding on a coated surface is turned into a signal by an enzyme label.
Data set [1] in a line: Stability of thickened dilute hypochlorite at 120° F. The settings on record: compared with thickeners of Table XXIV.

As to `[Na+].[O-]Cl` [NaOCl, sodium hypochlorite], the “bacterial growth on agar plate” value with Escherica coli is “no growth”; with Klebsiella species, “no bacterial growth”; in the data set on Staphococcus species it was “no growth”. Also, the “duration of continuous disinfection” value in the data set with contaminated slides is “continuous disinfection for more than a month”.

In the case of `OCl` [hypochlorite ions], the “reduction of dust mite allergen binding” value in the data set with Dust mite allergen is reported as “up to 82%”.

On to `CCCCCCCCCCCCOS(=O)(=O)[O-].[Na+]` [sodium lauryl sulfate], for which the “stability of dilute hypochlorite with surfactant, by comparison” value in data set [1] is “less stable than Vangel ES®”.
